# From patent US20230000813A1, “COMPOUND FOR THE TREATMENT OF BOVINE OR SWINE RESPIRATORY DISEASE” (Intervet Inc., priority 2016, published 2023)
# Tested on: Mannheimia haemolytica MH 13065 (XB0446-6003.9, BRD field isolate)
# Test: MIC, broth-microdilution (CLSI VET01-A4)
# Assay type: cell-based
# Conditions: not given
# Outline: (§1)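 MIC read by eye as lowest compound concentration without visible growth (no turbidity), interpreted per CLSI VET01-S3. Doubling-dilution broth-microdilution trays, run according to CLSI VET01-A4.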
row,Compound,MIC [µM]
1,CC(C)(N)C(NC(=O)c1ccc(C#Cc2ccc(CNCc3nccs3)cc2)cc1)C(=O)NO (centres unmarked) [Compound 562],0.8
2,CSC(C)(C)[C@H](NC(=O)c1ccc(C#Cc2ccc(CNCc3ccccn3)cc2)cc1)C(=O)NO [Compound 595],0.8
3,CCC(C)C(NC(=O)c1ccc(C#Cc2ccc(CNC3CC3)cc2)cc1)C(=O)NO (centres unmarked) [Compound 164],0.4
4,CC(C)(O)C(NC(=O)c1ccc(C#Cc2ccc(CNCc3ccnc(Cl)c3)cc2)cc1)C(=O)NO (centres unmarked) [Compound 575],0.2
5,CSC(C)(C)C(NC(=O)c1ccc(C#Cc2ccc(CNC3CC3)cc2)cc1)C(=O)NO (centres unmarked) [Compound 581],0.4

# Tested on: Mannheimia haemolytica MH 13093 (XB0472-6014.1, BRD field isolate)
# Test: MIC, broth-microdilution (CLSI VET01-A4)
# Assay type: cell-based
# Conditions: not given
# Outline: as §1
row,Compound,MIC [µM]
1,CC(C)(N)C(NC(=O)c1ccc(C#Cc2ccc(CNCc3nccs3)cc2)cc1)C(=O)NO (centres unmarked) [Compound 562],0.8
2,CSC(C)(C)[C@H](NC(=O)c1ccc(C#Cc2ccc(CNCc3ccccn3)cc2)cc1)C(=O)NO [Compound 595],0.8
3,CCC(C)C(NC(=O)c1ccc(C#Cc2ccc(CNC3CC3)cc2)cc1)C(=O)NO (centres unmarked) [Compound 164],0.4
4,CC(C)(O)C(NC(=O)c1ccc(C#Cc2ccc(CNCc3ccnc(Cl)c3)cc2)cc1)C(=O)NO (centres unmarked) [Compound 575],0.4
5,CSC(C)(C)C(NC(=O)c1ccc(C#Cc2ccc(CNC3CC3)cc2)cc1)C(=O)NO (centres unmarked) [Compound 581],0.4

# Tested on: Pasteurella multocida PM 12080 (IV102277-0093, BRD field isolate)
# Test: MIC, broth-microdilution (CLSI VET01-A4)
# Assay type: cell-based
# Conditions: Pasteurella multocida PM 12080
# Outline: (§2)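 MIC values follow CLSI VET01-S3 interpretation, scored as the lowest concentration free of visible turbidity within a doubling dilution series in microdilution trays.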
row,Compound,MIC PM 12080
1,CC(C)(N)C(NC(=O)c1ccc(C#Cc2ccc(CNCc3nccs3)cc2)cc1)C(=O)NO (centres unmarked) [Compound 562],<=0.1 μM
2,CC(C)(O)C(NC(=O)c1ccc(C#Cc2ccc(CNCc3ccnc(Cl)c3)cc2)cc1)C(=O)NO (centres unmarked) [Compound 575],<=0.1 μM
3,CSC(C)(C)C(NC(=O)c1ccc(C#Cc2ccc(CNC3CC3)cc2)cc1)C(=O)NO (centres unmarked) [Compound 581],<=0.1 μM

# Same assay, conditions: Pasteurella multocida PM 12080; read-out: MIC PM 12080
row,Compound,MIC [µM]
1,CSC(C)(C)[C@H](NC(=O)c1ccc(C#Cc2ccc(CNCc3ccccn3)cc2)cc1)C(=O)NO [Compound 595],0.4
2,CCC(C)C(NC(=O)c1ccc(C#Cc2ccc(CNC3CC3)cc2)cc1)C(=O)NO (centres unmarked) [Compound 164],0.2

# Tested on: Pasteurella multocida PM 6267 (P 2225 (L386), reference strain, mouse infection strain)
# Test: MIC, broth-microdilution (CLSI VET01-A4)
# Assay type: cell-based
# Conditions: Pasteurella multocida PM 6267
# Outline: as §2
row,Compound,MIC PM 6267
1,CC(C)(N)C(NC(=O)c1ccc(C#Cc2ccc(CNCc3nccs3)cc2)cc1)C(=O)NO (centres unmarked) [Compound 562],<=0.1 μM
2,CCC(C)C(NC(=O)c1ccc(C#Cc2ccc(CNC3CC3)cc2)cc1)C(=O)NO (centres unmarked) [Compound 164],<=0.1 μM
3,CC(C)(O)C(NC(=O)c1ccc(C#Cc2ccc(CNCc3ccnc(Cl)c3)cc2)cc1)C(=O)NO (centres unmarked) [Compound 575],<=0.1 μM
4,CSC(C)(C)C(NC(=O)c1ccc(C#Cc2ccc(CNC3CC3)cc2)cc1)C(=O)NO (centres unmarked) [Compound 581],<=0.1 μM

# Same assay, conditions: Pasteurella multocida PM 6267; read-out: MIC PM 6267
row,Compound,MIC [µM]
1,CSC(C)(C)[C@H](NC(=O)c1ccc(C#Cc2ccc(CNCc3ccccn3)cc2)cc1)C(=O)NO [Compound 595],0.2

# Tested on: Mannheimia haemolytica MH 10720 (154, BRD field isolate)
# Test: MIC, broth-microdilution (CLSI VET01-A4)
# Assay type: cell-based
# Conditions: Mannheimia haemolytica MH 10720
# Outline: as §2
row,Compound,MIC MH 10720
1,CC(C)(N)C(NC(=O)c1ccc(C#Cc2ccc(CNCc3nccs3)cc2)cc1)C(=O)NO (centres unmarked) [Compound 562],<=0.1 μM
2,CCC(C)C(NC(=O)c1ccc(C#Cc2ccc(CNC3CC3)cc2)cc1)C(=O)NO (centres unmarked) [Compound 164],<=0.1 μM
3,CC(C)(O)C(NC(=O)c1ccc(C#Cc2ccc(CNCc3ccnc(Cl)c3)cc2)cc1)C(=O)NO (centres unmarked) [Compound 575],<=0.1 μM
4,CSC(C)(C)C(NC(=O)c1ccc(C#Cc2ccc(CNC3CC3)cc2)cc1)C(=O)NO (centres unmarked) [Compound 581],<=0.1 μM

# Same assay, conditions: Mannheimia haemolytica MH 10720; read-out: MIC MH 10720
row,Compound,MIC [µM]
1,CSC(C)(C)[C@H](NC(=O)c1ccc(C#Cc2ccc(CNCc3ccccn3)cc2)cc1)C(=O)NO [Compound 595],0.2

# Tested on: Mannheimia haemolytica MH 12587 (1071, BRD field isolate, macrolide-resistance: erm+, E+)
# Test: MIC, broth-microdilution (CLSI VET01-A4)
# Assay type: cell-based
# Conditions: Mannheimia haemolytica MH 12587, macrolide-resistant
# Outline: as §2
row,Compound,MIC MH 12587 [µM]
1,CC(C)(N)C(NC(=O)c1ccc(C#Cc2ccc(CNCc3nccs3)cc2)cc1)C(=O)NO (centres unmarked) [Compound 562],1.6
2,CSC(C)(C)[C@H](NC(=O)c1ccc(C#Cc2ccc(CNCc3ccccn3)cc2)cc1)C(=O)NO [Compound 595],1.6
3,CCC(C)C(NC(=O)c1ccc(C#Cc2ccc(CNC3CC3)cc2)cc1)C(=O)NO (centres unmarked) [Compound 164],0.8
4,CC(C)(O)C(NC(=O)c1ccc(C#Cc2ccc(CNCc3ccnc(Cl)c3)cc2)cc1)C(=O)NO (centres unmarked) [Compound 575],0.4
5,CSC(C)(C)C(NC(=O)c1ccc(C#Cc2ccc(CNC3CC3)cc2)cc1)C(=O)NO (centres unmarked) [Compound 581],1.6

# Tested on: Mannheimia haemolytica MH 6374 (ATCC 33396, reference strain)
# Test: MIC, broth-microdilution (CLSI VET01-A4)
# Assay type: cell-based
# Conditions: Mannheimia haemolytica MH 6374; read-out: MIC MH 6374
# Outline: as §2
row,Compound,MIC [µM]
1,CC(C)(N)C(NC(=O)c1ccc(C#Cc2ccc(CNCc3nccs3)cc2)cc1)C(=O)NO (centres unmarked) [Compound 562],0.8
2,CSC(C)(C)[C@H](NC(=O)c1ccc(C#Cc2ccc(CNCc3ccccn3)cc2)cc1)C(=O)NO [Compound 595],1.6
3,CCC(C)C(NC(=O)c1ccc(C#Cc2ccc(CNC3CC3)cc2)cc1)C(=O)NO (centres unmarked) [Compound 164],0.781
4,CC(C)(O)C(NC(=O)c1ccc(C#Cc2ccc(CNCc3ccnc(Cl)c3)cc2)cc1)C(=O)NO (centres unmarked) [Compound 575],0.4
5,CSC(C)(C)C(NC(=O)c1ccc(C#Cc2ccc(CNC3CC3)cc2)cc1)C(=O)NO (centres unmarked) [Compound 581],0.8

# Tested on: Pasteurella multocida PM 6391 (ATCC 43137, reference strain)
# Test: MIC, broth-microdilution (CLSI VET01-A4)
# Assay type: cell-based
# Conditions: Pasteurella multocida PM 6391
# Outline: as §2
row,Compound,MIC PM 6391
1,CC(C)(N)C(NC(=O)c1ccc(C#Cc2ccc(CNCc3nccs3)cc2)cc1)C(=O)NO (centres unmarked) [Compound 562],<=0.1 μM
2,CC(C)(O)C(NC(=O)c1ccc(C#Cc2ccc(CNCc3ccnc(Cl)c3)cc2)cc1)C(=O)NO (centres unmarked) [Compound 575],<=0.1 μM
3,CSC(C)(C)C(NC(=O)c1ccc(C#Cc2ccc(CNC3CC3)cc2)cc1)C(=O)NO (centres unmarked) [Compound 581],<=0.1 μM

# Same assay, conditions: Pasteurella multocida PM 6391; read-out: MIC PM 6391
row,Compound,MIC [µM]
1,CSC(C)(C)[C@H](NC(=O)c1ccc(C#Cc2ccc(CNCc3ccccn3)cc2)cc1)C(=O)NO [Compound 595],0.8
2,CCC(C)C(NC(=O)c1ccc(C#Cc2ccc(CNC3CC3)cc2)cc1)C(=O)NO (centres unmarked) [Compound 164],0.391

# Tested on: Mannheimia haemolytica MH 6357 (M7/2, reference strain, cattle infection strain)
# Test: MIC, broth-microdilution (CLSI VET01-A4)
# Assay type: cell-based
# Conditions: Mannheimia haemolytica MH 6357; read-out: MIC MH 6357
# Outline: as §2
row,Compound,MIC [µM]
1,CC(C)(N)C(NC(=O)c1ccc(C#Cc2ccc(CNCc3nccs3)cc2)cc1)C(=O)NO (centres unmarked) [Compound 562],0.8
2,CSC(C)(C)[C@H](NC(=O)c1ccc(C#Cc2ccc(CNCc3ccccn3)cc2)cc1)C(=O)NO [Compound 595],0.8
3,CCC(C)C(NC(=O)c1ccc(C#Cc2ccc(CNC3CC3)cc2)cc1)C(=O)NO (centres unmarked) [Compound 164],0.391
4,CC(C)(O)C(NC(=O)c1ccc(C#Cc2ccc(CNCc3ccnc(Cl)c3)cc2)cc1)C(=O)NO (centres unmarked) [Compound 575],0.4
5,CSC(C)(C)C(NC(=O)c1ccc(C#Cc2ccc(CNC3CC3)cc2)cc1)C(=O)NO (centres unmarked) [Compound 581],0.4

# Tested on: Pasteurella multocida PM 10775 (080130003051, BRD field isolate)
# Test: MIC, broth-microdilution (CLSI VET01-A4)
# Assay type: cell-based
# Conditions: Pasteurella multocida PM 10775
# Outline: as §2
row,Compound,MIC PM 10775
1,CC(C)(N)C(NC(=O)c1ccc(C#Cc2ccc(CNCc3nccs3)cc2)cc1)C(=O)NO (centres unmarked) [Compound 562],<=0.1 μM
2,CSC(C)(C)[C@H](NC(=O)c1ccc(C#Cc2ccc(CNCc3ccccn3)cc2)cc1)C(=O)NO [Compound 595],<=0.1 μM
3,CCC(C)C(NC(=O)c1ccc(C#Cc2ccc(CNC3CC3)cc2)cc1)C(=O)NO (centres unmarked) [Compound 164],<=0.1 μM
4,CC(C)(O)C(NC(=O)c1ccc(C#Cc2ccc(CNCc3ccnc(Cl)c3)cc2)cc1)C(=O)NO (centres unmarked) [Compound 575],<=0.1 μM
5,CSC(C)(C)C(NC(=O)c1ccc(C#Cc2ccc(CNC3CC3)cc2)cc1)C(=O)NO (centres unmarked) [Compound 581],<=0.1 μM
